Here are results for 12 compounds from patent US10399940B2, “Substituted pyrrolidines and methods of use” (AbbVie S.à.r.l., priority 2016, dated 2019).

As a reminder, the EC50 is the concentration that produces a half-maximal response.

Where two headings read alike, the source gives them in different places.

The target in this experiment is T1, F508delCFTR (Homo sapiens, UniProt P13569, DEL508-508).
T1 construct: expressed in transfected cells; host or cells: CFBE41o- (human lung derived epithelial cell line), doxycycline-inducible expression
T1 sequence (P13569 with tags, fused parts or gaps DEL508-508): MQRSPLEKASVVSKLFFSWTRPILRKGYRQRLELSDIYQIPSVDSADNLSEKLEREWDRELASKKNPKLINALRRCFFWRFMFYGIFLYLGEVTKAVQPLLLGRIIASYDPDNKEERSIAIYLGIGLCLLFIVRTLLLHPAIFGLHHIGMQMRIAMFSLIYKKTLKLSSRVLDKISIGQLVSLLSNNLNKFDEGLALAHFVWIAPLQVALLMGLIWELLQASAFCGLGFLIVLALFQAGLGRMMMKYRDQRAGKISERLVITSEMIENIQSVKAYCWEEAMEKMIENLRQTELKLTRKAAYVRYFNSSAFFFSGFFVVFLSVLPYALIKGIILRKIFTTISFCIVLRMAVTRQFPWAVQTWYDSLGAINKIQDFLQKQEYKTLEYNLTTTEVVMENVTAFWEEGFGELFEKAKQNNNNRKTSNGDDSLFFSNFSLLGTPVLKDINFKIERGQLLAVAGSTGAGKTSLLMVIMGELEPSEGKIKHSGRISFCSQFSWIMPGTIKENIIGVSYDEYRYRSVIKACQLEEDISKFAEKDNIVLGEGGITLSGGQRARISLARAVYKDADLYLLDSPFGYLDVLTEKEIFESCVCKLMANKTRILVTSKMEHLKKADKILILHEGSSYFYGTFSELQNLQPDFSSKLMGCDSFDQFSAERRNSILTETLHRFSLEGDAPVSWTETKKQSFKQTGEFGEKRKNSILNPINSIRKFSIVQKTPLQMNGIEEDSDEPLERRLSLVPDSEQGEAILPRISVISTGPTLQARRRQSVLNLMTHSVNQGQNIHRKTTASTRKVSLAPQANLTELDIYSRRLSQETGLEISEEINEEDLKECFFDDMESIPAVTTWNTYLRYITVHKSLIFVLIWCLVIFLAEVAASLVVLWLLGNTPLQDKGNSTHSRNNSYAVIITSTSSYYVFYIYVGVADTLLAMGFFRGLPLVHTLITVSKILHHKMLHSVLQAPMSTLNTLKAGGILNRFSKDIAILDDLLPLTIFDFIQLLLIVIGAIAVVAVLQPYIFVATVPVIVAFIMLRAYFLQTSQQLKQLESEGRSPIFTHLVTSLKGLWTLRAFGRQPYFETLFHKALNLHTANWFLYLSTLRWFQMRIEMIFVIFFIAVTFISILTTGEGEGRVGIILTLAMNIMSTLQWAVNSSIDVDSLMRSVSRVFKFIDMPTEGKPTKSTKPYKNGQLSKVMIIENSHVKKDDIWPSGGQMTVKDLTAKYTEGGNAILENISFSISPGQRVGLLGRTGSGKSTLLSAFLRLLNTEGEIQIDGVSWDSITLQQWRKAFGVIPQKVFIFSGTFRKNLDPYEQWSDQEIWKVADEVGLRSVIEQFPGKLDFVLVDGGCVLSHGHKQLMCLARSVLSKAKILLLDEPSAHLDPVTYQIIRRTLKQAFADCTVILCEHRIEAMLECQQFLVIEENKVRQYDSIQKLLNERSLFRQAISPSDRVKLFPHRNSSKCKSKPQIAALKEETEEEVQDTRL
Kind of experiment: Cell Surface Expression-Horse Radish Peroxidase (CSE-HRP) assay. The settings on record: CFBE41o-F508delCFTR-HRP cells; for Maximum % activity (with co-corrector): with co-corrector (2 μM); for Maximum % activity (with co-corrector) / Maximum % activity (without co-corrector): normalized to on-plate positive control, highest concentration 20 μM. The format is cell-based. Put shortly: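 CFBE41o- cells expressed F508delCFTR with HRP in the fourth exofacial loop, induced by 0.5 μg/mL doxycycline for 72 h at 37 °C. Compounds alone or with 2 μM co-corrector ran 18–24 h at 33 °C, 8-point 3-fold from 20 μM. Washed-cell luminol luminescence was normalized to DMSO and positive control, fitted sigmoidally for EC50 (three plates).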

Where [1] appears, read: test compound without co-corrector, 18-24 hours at 33° C., read-out: EC50 (without co-corrector).
Setting [2] is: with co-corrector (2 μM of 3-[(2R,4R)-4-({[1-(2,2-difluoro-1,3-benzodioxol-5-yl)cyclopropyl]carbonyl}amino)-7-methoxy-3,4-dihydro-2H-chromen-2-yl]benzoic acid), read-out: EC50 (with co-corrector).

For the compound `COc1ncc(C(F)(F)F)cc1CO[C@H]1[C@H](C(C)(C)C)[C@@H](C(=O)O)N(C(=O)[C@@H]2CCOC2)[C@H]1c1ccccc1C(C)C` [Example 111, (2S,3R,4S,5S)-3-tert-butyl-4-{[2-methoxy-5-(trifluoromethyl)pyridin-3-yl]methoxy}-1-[(3R)-oxolane-3-carbonyl]-5-[2-(propan-2-yl)phenyl]pyrrolidine-2-carboxylic acid], the “Maximum % activity (with co-corrector)” value is on record as “+++ (≥350)”; the “Maximum % activity (without co-corrector)” value is “++ (≥100 and <200)”. Moreover, under setting [1], the EC50 was in the range of 1000 to 10000 nM. Under setting [2], the EC50 was in the range of 1000 to 10000 nM.

Take `COc1ncc(C(F)(F)F)cc1CO[C@H]1[C@H](C(C)(C)C)[C@@H](C(=O)O)N(C(=O)[C@@H]2CCCO2)[C@H]1c1ccccc1C1CC1` [Example 112, (2S,3R,4S,5S)-3-tert-butyl-5-(2-cyclopropylphenyl)-4-{[2-methoxy-5-(trifluoromethyl)pyridin-3-yl]methoxy}-1-[(2S)-oxolane-2-carbonyl]pyrrolidine-2-carboxylic acid]: the “Maximum % activity (with co-corrector)” value is on record as “+++ (≥350)”; the “Maximum % activity (without co-corrector)” value was “++ (≥100 and <200)”. Also, the concentration giving a half-maximal response (EC50) under setting [1] fell in the range of 1000 to 10000 nM. The EC50 under setting [2] is under 1000 nM.

Take `COc1ccc(C(F)(F)F)cc1CO[C@H]1[C@H](C(C)(C)C)[C@@H](C(=O)O)N(C(=O)[C@@H]2CCCO2)[C@H]1c1cccnc1C(F)(F)F` [Example 113, (2S,3R,4S,5S)-3-tert-butyl-4-{[2-methoxy-5-(trifluoromethyl)phenyl]methoxy}-1-[(2S)-oxolane-2-carbonyl]-5-[2-(trifluoromethyl)pyridin-3-yl]pyrrolidine-2-carboxylic acid]: the “Maximum % activity (with co-corrector)” value is “++ (≥150 and <350)”; the “Maximum % activity (without co-corrector)” value is listed as “+ (<100)”. In addition, the concentration giving a half-maximal response (EC50) under setting [1] is 1000 to 10000 nM. Also, under setting [2], the EC50 was 1000 to 10000 nM.

Turning to `COc1ccc(C(F)(F)F)cc1CO[C@@H]1[C@H](C(C)(C)C)[C@@H](C(=O)O)N(C(=O)[C@@H]2CCCO2)[C@H]1c1cccnc1C(F)(F)F` [Example 114, (2S,3R,4R,5S)-3-tert-butyl-4-{[2-methoxy-5-(trifluoromethyl)phenyl]methoxy}-1-[(2S)-oxolane-2-carbonyl]-5-[2-(trifluoromethyl)pyridin-3-yl]pyrrolidine-2-carboxylic acid], the “Maximum % activity (with co-corrector)” value is reported as “+ (<150)” and the “Maximum % activity (without co-corrector)” value is reported as “+ (<100)”. The EC50 under setting [1] was over 10000 nM. Further, under setting [2], the EC50 was over 10000 nM.

Consider `COc1ncc(C(F)(F)F)cc1CO[C@H]1[C@H](C(C)(C)C)[C@@H](C(=O)O)N(C(=O)[C@@H]2CCCO2)[C@H]1c1ccccc1Cl` [Example 115, (2S,3R,4S,5S)-3-tert-butyl-5-(2-chlorophenyl)-4-{[2-methoxy-5-(trifluoromethyl)pyridin-3-yl]methoxy}-1-[(2S)-oxolane-2-carbonyl]pyrrolidine-2-carboxylic acid], for which the “Maximum % activity (with co-corrector)” value is listed as “+++ (≥350)”; the “Maximum % activity (without co-corrector)” value is “++ (≥100 and <200)”. Under setting [1], the EC50 was in the range of 1000 to 10000 nM. The EC50 under setting [2] was under 1000 nM.

On to `COc1nc2ccccc2cc1CO[C@H]1[C@H](C(C)(C)C)[C@@H](C(=O)O)N(C(=O)[C@@H]2CCCO2)[C@H]1c1ccccc1C(C)C` [Example 116, (2S,3R,4S,5S)-3-tert-butyl-4-[(2-methoxyquinolin-3-yl)methoxy]-1-[(2S)-oxolane-2-carbonyl]-5-[2-(propan-2-yl)phenyl]pyrrolidine-2-carboxylic acid], for which the “Maximum % activity (with co-corrector)” value is “+++ (≥350)”; the “Maximum % activity (without co-corrector)” value is “++ (≥100 and <200)”. Besides, the EC50 under setting [1] lay within 1000 to 10000 nM. Further, the EC50 under setting [2] is 1000 to 10000 nM.

Take `COc1ncc(C(F)(F)F)cc1CO[C@H]1[C@H](C(C)(C)C)[C@@H](C(=O)O)N(C(=O)[C@@H]2CCCO2)[C@H]1c1cccc(C(C)C)c1` [Example 117, (2S,3R,4S,5S)-3-tert-butyl-4-{[2-methoxy-5-(trifluoromethyl)pyridin-3-yl]methoxy}-1-[(2S)-oxolane-2-carbonyl]-5-[3-(propan-2-yl)phenyl]pyrrolidine-2-carboxylic acid]: the “Maximum % activity (with co-corrector)” value is “++ (≥150 and <350)”; the “Maximum % activity (without co-corrector)” value is listed as “+ (<100)”. Also, the EC50 under setting [1] is under 1000 nM. Further, the EC50 under setting [2] is under 1000 nM.

As for `COc1ncc(C(F)(F)F)cc1CO[C@H]1[C@H](C(C)(C)C)[C@@H](C(=O)O)N(C(=O)[C@@H]2CCCO2)[C@H]1c1cccc(Br)c1` [Example 118, (2S,3R,4S,5S)-5-(3-bromophenyl)-3-tert-butyl-4-{[2-methoxy-5-(trifluoromethyl)pyridin-3-yl]methoxy}-1-[(2S)-oxolane-2-carbonyl]pyrrolidine-2-carboxylic acid], the “Maximum % activity (with co-corrector)” value is listed as “+++ (≥350)”; the “Maximum % activity (without co-corrector)” value is “++ (≥100 and <200)”. The 50% effective concentration (EC50) under setting [1] lay in the range of 1000 to 10000 nM. Under setting [2], the EC50 was under 1000 nM.

Consider `COc1ncc(C(F)(F)F)cc1CO[C@H]1[C@H](C(C)(C)C)[C@@H](C(=O)O)N(C(=O)[C@@H]2CCCO2)[C@H]1c1cccc(Cl)c1` [Example 119, (2S,3R,4S,5S)-3-tert-butyl-5-(3-chlorophenyl)-4-{[2-methoxy-5-(trifluoromethyl)pyridin-3-yl]methoxy}-1-[(2S)-oxolane-2-carbonyl]pyrrolidine-2-carboxylic acid], for which the “Maximum % activity (with co-corrector)” value is “+++ (≥350)”; the “Maximum % activity (without co-corrector)” value is “++ (≥100 and <200)”. Moreover, the EC50 under setting [1] fell in the range of 1000 to 10000 nM. Also, the half-maximal effective concentration (EC50) under setting [2] was in the range of 1000 to 10000 nM.

As to `COc1ncc(C(F)(F)F)cc1CO[C@H]1[C@H](C(C)(C)C)[C@@H](C(=O)O)N(C(=O)[C@@H]2CCCO2)[C@H]1c1cccc(C2CC2)c1` [Example 120, (2S,3R,4S,5S)-3-tert-butyl-5-(3-cyclopropylphenyl)-4-{[2-methoxy-5-(trifluoromethyl)pyridin-3-yl]methoxy}-1-[(2S)-oxolane-2-carbonyl]pyrrolidine-2-carboxylic acid], the “Maximum % activity (with co-corrector)” value is “++ (≥150 and <350)”; the “Maximum % activity (without co-corrector)” value is given as “+ (<100)”. Also, the EC50 under setting [1] lay in the range of 1000 to 10000 nM. In addition, under setting [2], the half-maximal effective concentration (EC50) is under 1000 nM.

`COc1ncc(C(F)(F)F)cc1CO[C@H]1[C@H](C(C)(C)C)[C@@H](C(=O)O)N(C(=O)[C@@H]2CCCO2)[C@H]1c1cccc(C(C)(C)C)c1` [Example 121, (2S,3R,4S,5S)-3-tert-butyl-5-(3-tert-butylphenyl)-4-{[2-methoxy-5-(trifluoromethyl)pyridin-3-yl]methoxy}-1-[(2S)-oxolane-2-carbonyl]pyrrolidine-2-carboxylic acid]: the “Maximum % activity (with co-corrector)” value was “++ (≥150 and <350)”; the “Maximum % activity (without co-corrector)” value is reported as “+ (<100)”. In addition, the 50% effective concentration (EC50) under setting [1] was under 1000 nM. The EC50 under setting [2] was under 1000 nM.

As for `COc1ncc(C(F)(F)F)cc1CO[C@@H]1[C@H](C(C)(C)C)[C@@H](C(=O)O)N(C(=O)[C@@H]2CCCO2)[C@H]1c1cccc(C(C)(C)C)c1` [Example 122, (2S,3R,4R,5S)-3-tert-butyl-5-(3-tert-butylphenyl)-4-{[2-methoxy-5-(trifluoromethyl)pyridin-3-yl]methoxy}-1-[(2S)-oxolane-2-carbonyl]pyrrolidine-2-carboxylic acid], the “Maximum % activity (with co-corrector)” value is given as “+ (<150)” and the “Maximum % activity (without co-corrector)” value is given as “+ (<100)”. Besides, under setting [1], the EC50 is over 10000 nM. For the same compound, the EC50 under setting [2] is over 10000 nM.
